Consider ten compounds from ChEMBL document CHEMBL1201862, “PubChem BioAssay data set” (2004).

One test addresses Cytochrome P450 2D6 (Homo sapiens, UniProt P10635). In words: qHTS Assay for Inhibitors and Substrates of Cytochrome P450 2D6. [Related pubchem assays: 410 ]. Type of test: ADME. As to conditions: read-out: Potency.
Another test addresses Cytochrome P450 2C9 (Homo sapiens, UniProt P11712). As to conditions: Potency.
Another test concerns the target Cytochrome P450 3A4 (Homo sapiens, UniProt P08684). Conditions: Potency.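 Further: confirmatory qHTS run detecting inhibitors and substrates of CYP3A4.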
A further test concerns the target T1, Leucine aminopeptidase (Plasmodium falciparum 3D7, UniProt Q8IL11).
T1 sequence (Q8IL11 whole entry): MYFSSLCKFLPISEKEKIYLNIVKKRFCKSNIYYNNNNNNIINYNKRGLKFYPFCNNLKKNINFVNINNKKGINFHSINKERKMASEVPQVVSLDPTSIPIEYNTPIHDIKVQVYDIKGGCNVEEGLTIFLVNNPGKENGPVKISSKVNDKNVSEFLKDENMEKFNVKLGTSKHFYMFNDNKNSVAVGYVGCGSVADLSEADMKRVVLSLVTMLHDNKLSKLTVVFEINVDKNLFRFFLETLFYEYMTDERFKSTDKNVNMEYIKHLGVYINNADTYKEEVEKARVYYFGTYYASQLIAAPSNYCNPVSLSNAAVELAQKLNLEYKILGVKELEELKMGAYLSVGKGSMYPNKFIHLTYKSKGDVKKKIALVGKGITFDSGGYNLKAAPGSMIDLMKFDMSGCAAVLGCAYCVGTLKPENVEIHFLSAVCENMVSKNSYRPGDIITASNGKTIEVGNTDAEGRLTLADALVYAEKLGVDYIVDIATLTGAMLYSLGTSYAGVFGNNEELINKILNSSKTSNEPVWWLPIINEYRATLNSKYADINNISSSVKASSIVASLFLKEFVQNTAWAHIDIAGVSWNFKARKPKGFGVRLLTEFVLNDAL
In words: P. falciparum M17LAP inhibitors, primary screen, biochemical, fluorogenic H-Leu-NHMec substrate, 1536-well (AID 1619). The test is classed as functional.

The nature of test [1]: enhancers of respiration in Yfh1-depleted yeast, dose response, Friedreich's ataxia, plus single-dose screen (AID 1465).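 Further: yeast depleted of Yfh1p frataxin homolog grown on glycerol needing respiration; WST-1 tetrazolium dye reduction as measure of cellular dehydrogenase metabolic activity.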 Type of test: functional.
A short description of test [2]: Counterscreen for IDE inhibitors: Luminescence-based cell-based high throughput dose response assay to identify compounds that are cytotoxic to HEK cells. [Related pubchem assays: 434962 (Primary screen (IDE inhibitors in singlicate)), 449730 (Counterscreen (Cytotoxicity in triplicate)), 435028 (Confirmation (IDE inhibitors in triplicate)) …. As to conditions: HEK293. The test is classed as functional.

Another test concerns the target T2, Insulin-degrading enzyme (Homo sapiens, UniProt P14735).
T2 sequence (P14735 whole entry): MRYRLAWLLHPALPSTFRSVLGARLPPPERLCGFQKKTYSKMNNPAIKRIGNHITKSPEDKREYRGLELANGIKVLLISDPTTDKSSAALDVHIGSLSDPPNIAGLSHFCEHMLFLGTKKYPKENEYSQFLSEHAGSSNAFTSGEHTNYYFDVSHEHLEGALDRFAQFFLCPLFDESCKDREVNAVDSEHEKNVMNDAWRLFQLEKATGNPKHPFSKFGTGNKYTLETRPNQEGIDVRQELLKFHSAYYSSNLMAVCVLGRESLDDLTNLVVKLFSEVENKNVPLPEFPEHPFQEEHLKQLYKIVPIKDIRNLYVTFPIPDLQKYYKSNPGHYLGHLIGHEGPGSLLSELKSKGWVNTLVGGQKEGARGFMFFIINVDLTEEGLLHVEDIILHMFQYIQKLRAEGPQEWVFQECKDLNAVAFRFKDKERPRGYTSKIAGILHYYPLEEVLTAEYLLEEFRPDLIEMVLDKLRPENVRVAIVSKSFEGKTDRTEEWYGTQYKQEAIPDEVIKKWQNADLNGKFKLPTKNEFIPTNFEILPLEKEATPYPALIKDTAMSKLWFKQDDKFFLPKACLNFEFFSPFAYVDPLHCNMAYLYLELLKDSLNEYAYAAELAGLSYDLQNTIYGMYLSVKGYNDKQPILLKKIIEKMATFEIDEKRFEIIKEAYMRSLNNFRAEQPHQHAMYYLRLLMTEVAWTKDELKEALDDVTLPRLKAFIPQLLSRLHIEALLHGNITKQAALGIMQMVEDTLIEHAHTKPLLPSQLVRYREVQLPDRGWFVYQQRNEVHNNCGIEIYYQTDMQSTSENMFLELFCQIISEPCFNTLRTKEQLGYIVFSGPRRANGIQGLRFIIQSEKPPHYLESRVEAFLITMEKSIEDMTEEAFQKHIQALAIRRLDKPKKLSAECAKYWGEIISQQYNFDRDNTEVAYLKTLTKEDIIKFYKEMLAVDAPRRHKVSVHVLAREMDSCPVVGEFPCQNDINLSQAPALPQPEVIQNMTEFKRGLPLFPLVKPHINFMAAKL
In words: Dose Response: Fluorescence polarization-based cell-based high throughput dose response assay for inhibitors of insulin-degrading enzyme (IDE). [Related pubchem assays: 434962 (Primary screen (IDE inhibitors in singlicate)), 449730 (Counterscreen (Cytotoxicity in triplicate)), 435028 (Confirmation (IDE inhibitors in triplicate)), 434984 (Summary …. The test is classed as functional.

For test [3], the target named is CAAX prenyl protease 2 (Saccharomyces cerevisiae S288c, UniProt Q03530). Type of test: biochemical.
Sequence of CAAX prenyl protease 2 (Saccharomyces cerevisiae S288c, UniProt Q03530) (Q03530 whole entry): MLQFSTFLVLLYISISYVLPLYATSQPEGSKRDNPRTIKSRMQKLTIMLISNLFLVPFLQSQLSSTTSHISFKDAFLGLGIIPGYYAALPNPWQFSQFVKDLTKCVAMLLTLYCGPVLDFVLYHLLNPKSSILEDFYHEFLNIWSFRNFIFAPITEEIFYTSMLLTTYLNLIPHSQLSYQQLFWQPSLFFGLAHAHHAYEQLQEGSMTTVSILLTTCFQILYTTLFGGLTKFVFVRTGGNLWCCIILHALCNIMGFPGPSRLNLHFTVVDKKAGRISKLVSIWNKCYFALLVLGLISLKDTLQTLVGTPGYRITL
The next test concerns the target Trypsin (Sus scrofa, UniProt P00761). In words: porcine trypsin inhibitors, dose response, selectivity assay for Rce1 protease inhibitor project, biochemical, quenched peptide fluorescence, cherry-pick (AID 488789).
In test [4] the target is T3, CAAX prenyl protease 2 (Homo sapiens, UniProt Q9Y256).
T3 sequence (Q9Y256 whole entry): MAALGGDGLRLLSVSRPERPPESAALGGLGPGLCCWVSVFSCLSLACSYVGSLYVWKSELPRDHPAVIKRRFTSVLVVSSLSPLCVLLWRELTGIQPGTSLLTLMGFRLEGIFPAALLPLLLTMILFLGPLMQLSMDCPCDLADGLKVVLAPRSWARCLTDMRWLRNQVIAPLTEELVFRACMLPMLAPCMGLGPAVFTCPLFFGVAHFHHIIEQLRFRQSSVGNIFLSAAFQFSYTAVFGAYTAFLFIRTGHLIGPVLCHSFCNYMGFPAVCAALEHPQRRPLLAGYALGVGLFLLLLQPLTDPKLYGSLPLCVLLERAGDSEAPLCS
In words: human Rce1 protease inhibitors, dose response, biochemical, yeast membranes, quenched-peptide fluorescence, cherry-pick (AID 588849).

Test [5] concerns the target Peroxisome proliferator-activated receptor gamma/Nuclear receptor coactivator 3 (Homo sapiens, UniProt P37231). In words: TR-FRET dose response biochemical High Throughput Screening assay for agonists of the steroid receptor coactivator 3 (SRC-3) recruitment by the peroxisome proliferator-activated receptor gamma (PPAR gamma): non-selective agonists. [Related pubchem assays: 1301 (Confirmation screen.), 1048 (Primary screen.)]. Type of test: functional. (In general: TR-FRET usually uses a lanthanide donor and a delayed reading to cut background.)

For test [6], the target named is Peroxisome proliferator-activated receptor gamma/Nuclear receptor corepressor 2 (Homo sapiens, UniProt P37231+Q9Y618). The test is classed as functional.
Test [7] addresses Peroxisome proliferator-activated receptor gamma/Nuclear receptor coactivator 2 (Homo sapiens, UniProt P37231). In words: TR-FRET dose response biochemical High Throughput Screening assay for agonists of the steroid receptor coactivator 2 (SRC-2) recruitment by the peroxisome proliferator-activated receptor gamma (PPAR gamma): non-selective agonists. [Related pubchem assays: 1297, 1032 ]. The test is classed as functional.

Test [8] has as its target Peroxisome proliferator-activated receptor gamma/Nuclear receptor coactivator 1 (Homo sapiens, UniProt P37231). In words: TR-FRET dose response biochemical High Throughput Screening assay for agonists of the steroid receptor coactivator 1 (SRC-1) recruitment by the peroxisome proliferator-activated receptor gamma (PPAR gamma): non-selective agonists. [Related pubchem assays (depositor defined):AID1300, AID1808, AID504735, AID631]. Type of test: protein assay.

The target of test [9] is Photoreceptor-specific nuclear receptor (Homo sapiens, UniProt Q9Y5X4). The test is classed as functional.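 Further: potency for compounds that break the NR2E3 corepressor complex and count as activators.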
The target in test [10] is T4, Voltage-gated N-type calcium channel alpha-1B subunit/Amyloid beta A4 precursor protein-binding family A member 1 (Homo sapiens, UniProt Q00975+Q02410). Type of test: protein assay.
T4 sequence (Q00975 whole entry): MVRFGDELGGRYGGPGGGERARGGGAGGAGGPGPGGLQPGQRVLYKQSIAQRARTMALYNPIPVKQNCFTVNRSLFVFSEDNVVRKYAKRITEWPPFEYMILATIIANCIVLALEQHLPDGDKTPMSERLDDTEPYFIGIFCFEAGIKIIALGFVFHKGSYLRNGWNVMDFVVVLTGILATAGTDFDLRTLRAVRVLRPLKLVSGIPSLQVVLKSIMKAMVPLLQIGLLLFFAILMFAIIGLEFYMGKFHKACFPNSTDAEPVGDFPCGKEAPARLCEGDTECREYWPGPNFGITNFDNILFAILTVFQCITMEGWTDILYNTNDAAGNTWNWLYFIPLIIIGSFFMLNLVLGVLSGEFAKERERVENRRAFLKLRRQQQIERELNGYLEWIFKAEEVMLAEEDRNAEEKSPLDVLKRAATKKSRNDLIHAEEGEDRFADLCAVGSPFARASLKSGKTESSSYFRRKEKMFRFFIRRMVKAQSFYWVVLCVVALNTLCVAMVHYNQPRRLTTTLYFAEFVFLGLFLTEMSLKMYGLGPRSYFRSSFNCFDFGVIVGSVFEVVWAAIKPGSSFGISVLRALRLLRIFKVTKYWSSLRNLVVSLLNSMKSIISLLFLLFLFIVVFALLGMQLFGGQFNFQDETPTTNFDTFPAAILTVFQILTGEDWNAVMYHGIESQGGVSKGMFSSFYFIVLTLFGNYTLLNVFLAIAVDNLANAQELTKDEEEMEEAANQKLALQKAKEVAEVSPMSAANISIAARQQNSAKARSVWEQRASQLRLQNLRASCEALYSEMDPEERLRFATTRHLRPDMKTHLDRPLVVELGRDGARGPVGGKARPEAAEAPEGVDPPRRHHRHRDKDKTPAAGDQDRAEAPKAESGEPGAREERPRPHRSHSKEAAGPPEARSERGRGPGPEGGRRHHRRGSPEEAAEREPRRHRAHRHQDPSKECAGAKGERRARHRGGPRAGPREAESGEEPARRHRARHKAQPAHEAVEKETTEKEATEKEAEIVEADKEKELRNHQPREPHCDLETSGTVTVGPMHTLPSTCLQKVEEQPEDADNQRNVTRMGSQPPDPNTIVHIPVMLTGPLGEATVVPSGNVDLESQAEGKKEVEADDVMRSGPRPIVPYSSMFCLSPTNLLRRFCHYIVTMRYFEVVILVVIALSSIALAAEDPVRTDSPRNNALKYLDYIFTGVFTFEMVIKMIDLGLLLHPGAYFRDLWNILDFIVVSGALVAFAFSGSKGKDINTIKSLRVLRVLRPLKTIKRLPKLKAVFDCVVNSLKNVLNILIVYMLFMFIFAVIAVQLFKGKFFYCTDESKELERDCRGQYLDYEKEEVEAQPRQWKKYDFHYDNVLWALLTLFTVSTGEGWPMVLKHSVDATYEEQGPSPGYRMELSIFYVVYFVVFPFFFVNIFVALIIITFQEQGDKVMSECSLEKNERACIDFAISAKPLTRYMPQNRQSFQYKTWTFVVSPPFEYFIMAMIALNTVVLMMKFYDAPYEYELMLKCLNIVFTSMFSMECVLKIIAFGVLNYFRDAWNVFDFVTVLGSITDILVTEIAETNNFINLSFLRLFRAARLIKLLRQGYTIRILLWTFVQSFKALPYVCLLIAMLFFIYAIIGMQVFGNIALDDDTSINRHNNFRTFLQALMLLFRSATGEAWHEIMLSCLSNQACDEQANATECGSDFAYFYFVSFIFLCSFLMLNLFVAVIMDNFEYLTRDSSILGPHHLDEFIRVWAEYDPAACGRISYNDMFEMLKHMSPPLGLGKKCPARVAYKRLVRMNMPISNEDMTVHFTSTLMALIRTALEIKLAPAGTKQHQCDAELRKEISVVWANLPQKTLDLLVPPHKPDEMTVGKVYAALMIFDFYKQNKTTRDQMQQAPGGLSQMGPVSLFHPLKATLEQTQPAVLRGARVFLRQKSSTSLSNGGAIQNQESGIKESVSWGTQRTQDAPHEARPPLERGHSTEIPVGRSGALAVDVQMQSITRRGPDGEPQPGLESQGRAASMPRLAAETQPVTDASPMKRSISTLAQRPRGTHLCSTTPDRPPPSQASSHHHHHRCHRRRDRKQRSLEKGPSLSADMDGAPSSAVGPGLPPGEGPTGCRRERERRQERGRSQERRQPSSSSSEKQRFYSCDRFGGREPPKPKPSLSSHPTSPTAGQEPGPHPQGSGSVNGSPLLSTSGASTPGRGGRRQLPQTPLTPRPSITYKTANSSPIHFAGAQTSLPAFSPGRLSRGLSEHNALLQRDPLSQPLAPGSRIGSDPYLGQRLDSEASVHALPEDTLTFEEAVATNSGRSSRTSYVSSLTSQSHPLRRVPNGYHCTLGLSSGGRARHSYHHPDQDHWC
T4 sequence (Q02410 whole entry): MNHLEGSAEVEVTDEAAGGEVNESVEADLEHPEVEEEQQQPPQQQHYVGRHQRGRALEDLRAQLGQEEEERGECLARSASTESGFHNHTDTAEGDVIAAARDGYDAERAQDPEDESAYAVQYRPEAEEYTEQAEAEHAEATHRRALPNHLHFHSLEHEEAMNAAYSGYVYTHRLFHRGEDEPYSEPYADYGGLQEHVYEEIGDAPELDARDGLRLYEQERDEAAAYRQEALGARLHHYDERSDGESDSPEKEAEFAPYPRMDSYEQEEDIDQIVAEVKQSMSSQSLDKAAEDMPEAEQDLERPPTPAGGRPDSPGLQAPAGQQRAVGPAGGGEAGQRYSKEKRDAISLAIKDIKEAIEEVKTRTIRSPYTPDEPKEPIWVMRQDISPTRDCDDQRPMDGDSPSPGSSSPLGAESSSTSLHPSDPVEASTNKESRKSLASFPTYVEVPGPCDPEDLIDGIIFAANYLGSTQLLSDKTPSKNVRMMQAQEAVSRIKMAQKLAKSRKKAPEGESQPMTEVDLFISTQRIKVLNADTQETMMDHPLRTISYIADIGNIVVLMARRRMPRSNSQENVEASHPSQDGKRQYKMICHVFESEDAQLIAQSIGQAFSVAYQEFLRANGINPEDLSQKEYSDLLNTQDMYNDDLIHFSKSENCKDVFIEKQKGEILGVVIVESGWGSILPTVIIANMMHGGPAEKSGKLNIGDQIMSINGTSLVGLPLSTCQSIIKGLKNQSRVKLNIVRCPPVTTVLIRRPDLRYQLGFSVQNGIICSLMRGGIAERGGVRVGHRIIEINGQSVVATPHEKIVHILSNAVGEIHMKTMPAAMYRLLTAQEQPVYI
The target of test [11] is T4, Voltage-gated N-type calcium channel alpha-1B subunit/Amyloid beta A4 precursor protein-binding family A member 1. The test is classed as protein assay. The source holds these as a separate data set.
For test [12], the target named is Induced myeloid leukemia cell differentiation protein Mcl-1 (Homo sapiens, UniProt Q07820). The test is classed as functional.
Sequence of Induced myeloid leukemia cell differentiation protein Mcl-1 (Q07820 whole entry): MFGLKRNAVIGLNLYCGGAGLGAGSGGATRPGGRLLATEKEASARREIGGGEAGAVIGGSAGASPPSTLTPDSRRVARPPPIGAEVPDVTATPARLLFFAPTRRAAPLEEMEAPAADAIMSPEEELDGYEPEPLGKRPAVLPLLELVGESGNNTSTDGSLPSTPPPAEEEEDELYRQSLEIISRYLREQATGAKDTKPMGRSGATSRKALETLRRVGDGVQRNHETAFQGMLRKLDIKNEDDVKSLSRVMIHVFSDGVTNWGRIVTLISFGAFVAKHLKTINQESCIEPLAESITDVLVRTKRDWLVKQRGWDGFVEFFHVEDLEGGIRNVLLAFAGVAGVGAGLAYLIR
Test [13] is described as follows: A Cell Based Secondary Assay To Explore Cytotoxicity of Compounds that Sensitize Mycobacterium Tuberculosis to Beta-Lactam Antibiotics. Type of test: functional.
Test [14] addresses Neurotensin receptor type 1 (Homo sapiens, UniProt P30989). The test is classed as functional.
Test [15] has as its target T5, Corticotropin-releasing factor receptor 2/Corticotropin-releasing factor-binding protein (Homo sapiens, UniProt P24387+Q13324).
T5 sequence (Q13324 whole entry): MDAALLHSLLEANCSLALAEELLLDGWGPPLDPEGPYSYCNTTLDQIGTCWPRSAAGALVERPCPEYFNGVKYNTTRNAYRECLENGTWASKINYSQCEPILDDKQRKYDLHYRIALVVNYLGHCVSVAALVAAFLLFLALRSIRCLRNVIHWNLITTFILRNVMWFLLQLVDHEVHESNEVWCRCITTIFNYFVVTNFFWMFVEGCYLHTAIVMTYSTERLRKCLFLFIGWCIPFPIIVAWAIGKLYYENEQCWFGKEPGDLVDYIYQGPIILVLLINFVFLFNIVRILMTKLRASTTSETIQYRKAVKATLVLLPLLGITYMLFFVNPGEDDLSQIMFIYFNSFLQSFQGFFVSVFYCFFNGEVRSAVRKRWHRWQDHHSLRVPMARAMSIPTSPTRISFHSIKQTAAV
T5 sequence (P24387 whole entry): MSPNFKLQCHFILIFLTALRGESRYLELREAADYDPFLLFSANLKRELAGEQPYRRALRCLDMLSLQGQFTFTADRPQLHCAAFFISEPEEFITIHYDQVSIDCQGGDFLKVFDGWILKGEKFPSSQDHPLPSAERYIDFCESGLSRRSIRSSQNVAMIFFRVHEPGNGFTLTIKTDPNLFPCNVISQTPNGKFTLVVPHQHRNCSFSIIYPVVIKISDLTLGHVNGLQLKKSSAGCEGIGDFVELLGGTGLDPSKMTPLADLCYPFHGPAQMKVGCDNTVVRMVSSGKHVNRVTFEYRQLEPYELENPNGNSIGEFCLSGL
In words: activators of CRF receptor 2 with binding protein – uHTS hits, confirmation (AID 602473). As to conditions: read-out: EC50_Mean. The test is classed as functional.

A further test deals with Hexokinase (Trypanosoma brucei, UniProt Q38C41). In words: Confirmation assay for inhibitors of Trypanosoma brucei hexokinase 1-Analogue-first series. [Related pubchem assays (depositor defined):AID1430, AID1632, AID2516, AID2560, AID2579, AID2600, AID449725, AID492951]. Type of test: functional.
Sequence of Hexokinase (Q38C41 whole entry): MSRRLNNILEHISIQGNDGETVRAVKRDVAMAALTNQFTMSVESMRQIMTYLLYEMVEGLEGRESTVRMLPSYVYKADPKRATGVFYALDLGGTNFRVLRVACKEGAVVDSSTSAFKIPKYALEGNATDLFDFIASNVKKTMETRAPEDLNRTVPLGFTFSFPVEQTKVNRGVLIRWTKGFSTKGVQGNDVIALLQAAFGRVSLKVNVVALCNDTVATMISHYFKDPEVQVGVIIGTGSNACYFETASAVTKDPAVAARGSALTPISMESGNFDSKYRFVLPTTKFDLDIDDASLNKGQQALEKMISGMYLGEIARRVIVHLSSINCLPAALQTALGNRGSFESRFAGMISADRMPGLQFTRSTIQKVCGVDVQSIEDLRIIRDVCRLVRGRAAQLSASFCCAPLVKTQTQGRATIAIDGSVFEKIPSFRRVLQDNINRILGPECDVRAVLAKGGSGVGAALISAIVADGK

The source made the active and inactive calls. Where only a bound is given, the exact number is not on record here.

Sequence of Neurotensin receptor type 1 (P30989 whole entry): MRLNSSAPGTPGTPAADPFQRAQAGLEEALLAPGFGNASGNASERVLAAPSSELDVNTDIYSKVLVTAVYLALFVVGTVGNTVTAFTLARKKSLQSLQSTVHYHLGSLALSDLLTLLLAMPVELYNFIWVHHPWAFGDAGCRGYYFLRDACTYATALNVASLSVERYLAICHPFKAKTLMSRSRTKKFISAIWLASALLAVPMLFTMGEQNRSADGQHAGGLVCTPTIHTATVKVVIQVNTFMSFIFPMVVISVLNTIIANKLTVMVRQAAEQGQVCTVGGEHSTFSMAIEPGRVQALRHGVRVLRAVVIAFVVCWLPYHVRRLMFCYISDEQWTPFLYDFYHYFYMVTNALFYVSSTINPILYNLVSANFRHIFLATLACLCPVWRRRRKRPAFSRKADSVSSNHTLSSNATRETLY
Sequence of Trypsin (P00761 whole entry): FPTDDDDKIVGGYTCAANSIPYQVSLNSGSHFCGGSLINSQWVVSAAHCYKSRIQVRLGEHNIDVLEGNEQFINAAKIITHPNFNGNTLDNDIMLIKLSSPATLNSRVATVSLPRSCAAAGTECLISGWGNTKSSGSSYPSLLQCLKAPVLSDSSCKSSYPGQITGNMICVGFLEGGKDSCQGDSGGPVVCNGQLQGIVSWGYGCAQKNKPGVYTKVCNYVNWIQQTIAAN

For `Nc1c(S(=O)(=O)O)cc(Nc2ccc(Nc3nc(Cl)nc(Nc4ccc(S(=O)(=O)O)cc4)n3)c(S(=O)(=O)O)c2)c2c1C(=O)c1ccccc1C2=O`, the AC50 is 39.8 µM (inconclusive) at Cytochrome P450 2D6, 39.8 µM (inconclusive) on Cytochrome P450 2C9 and 25.1 µM (inconclusive) at Cytochrome P450 3A4.
By IC50 is commonly meant the midpoint of a concentration-inhibition curve. Regarding `CCN(CC)c1ccc(/C=C(/C#N)C(=O)NC(C)C)o1`, the IC50 at Leucine aminopeptidase is 65.8 µM (active); in test [2], > 55.7 µM (not active); on Insulin-degrading enzyme it was 13.2 µM (not active). For the same compound, the EC50 in test [1] is > 100 µM (active).
On to `Cc1cc(C)cc(Nc2ccc(C(=O)O)cc2N)c1`, for which the AC50 at CAAX prenyl protease 2 [3] is 84.5 µM (active); at Trypsin, 2.73 µM (active); on CAAX prenyl protease 2 [4], 3.8 µM (active).
In the case of `O=C(Nc1nc(-c2cccs2)c(C(=O)C(F)(F)F)s1)c1ccco1`, the EC50 in [5] is > 79.4 µM (not active); in [7] it was 50 µM (not active); in test [8], > 79.4 µM (inactive). Moreover, the IC50 is 2.22 µM (active) in test [6] and > 39.8 µM (not active) in test [9].
On to `Cc1ccc(-c2nc3c(c(=O)[nH]c(=O)n3Cc3ccccc3)n2C)o1`, for which the 50% inhibitory concentration (IC50) in test [10] is 6.21 µM (active); in test [11], 6.07 µM (active); in test [12], 4.71 µM (active).
Broadly, the CC50 is the concentration at which the toxic effect on the cells reaches its halfway point. Regarding `CCOC(=O)c1sc(Nc2nc3c(OC)cccc3s2)cc1C`, the CC50 in [13] is > 40 µM (active).
For the compound `CC1(C)CC(=O)C(=Cc2cn(-c3ccccc3)nc2-c2ccc(Cl)cc2)C(=O)C1`, the results for the EC50 in [14] and in [15] were 35.3 µM (inactive) and > 53 µM (inactive), respectively.
As to `O=C(O)c1ccccc1NC(=O)c1ccccc1C(=O)O`, the IC50 at Hexokinase is > 25 µM (inactive).
Regarding `COc1ccc(C(=O)NC(CC(=O)O)c2ccccc2)cc1` (centres undefined), at Hexokinase, the IC50 was > 25 µM (inactive).
In the case of `Cc1ccc(C(C)C)c(OCc2ccc(C(=O)N/N=C/c3ccc(C(=O)O)cc3)cc2)c1`, in [13], the 50% cytotoxic concentration (CC50) was > 40 µM (active).
